Experimental data published in patent US20170226518A1, “COMPOSITIONS AND METHODS FOR TREATING CANCER” (Autotelic LLC, priority 2016, published 2017).
In the oligonucleotide strings, read from the 5' end, every base follows the letter of its sugar. An asterisk marks phosphorothioate; unmarked linkages are phosphodiester. Other units and linkages are bracketed, terminal groups are in braces. A string of capitals states the bases alone. d = 2'-deoxy (DNA)

Experiments:
[1] = system: WiDr colon cancer cells; test: Cellular proliferation of WiDr colon cancer cells in vitro; type: cell-based; details: 10 μM AP12009
Description: (§1) The aim of the study was to determine the effect of AP12009 (trabedersen) treatment in combination with 5-Fluorouracil (5-FU) on TGFβ2 secretion and on cellular proliferation of HUP-T3 pancreatic cancer cells and WiDr colon cancer cells in vitro.

[2] = system: TGFβ2; test: TGFβ2 secretion/expression in WiDr colon cancer cells; type: cell-based; details: 10 μM AP12009
Description: as §1

[3] = Preclinical toxicology in Cynomolgus monkeys (LOAEL); type: in vivo
Protocol: The clinical starting dose for the 7-days-on and 7-days-off schedule was based on the Lowest-Observed-Adverse-Effect-Level (LOAEL) devoid of severe toxicity in Cynomolgus monkeys as the most relevant species. This LOAEL of 4 mg/kg body weight (b.w.)/day is equivalent to approximately 1.3 mg/kg b.w./day or 48 mg/m^2/day on a body surface area basis in human adults. These numbers were rounded down and the safe starting dose was defined at 40 mg/m^2/day, equivalent to approximately 1 mg/kg b.w./day in humans. An alternative approach would have been based on the lowest lethal dose (LLD) of 300 mg/kg b.w. obtained in the acute single dose toxicity study in mice (in rats it was determined at 1000 mg/kg), at which 1 of 10 mice died (LLD10). According to the standard method, 10% of this dose (30 mg/kg) on a body surface area basis would then be defined as the clinical starting dose resulting in 90 mg/m^2/day. In the end, the lower of the two alternatives was chosen as starting dose.

[4] = system: TGFβ2; test: TGFβ2 secretion in A-172 glioma cells; type: cell-based; details: 7 days, treatment schedule 2*2/1*3 d
Protocol: A-172 glioma cells were treated with a combination of AP12009 (trabedersen) 0 to 10 μM) and different concentrations of TMZ (temozolomide) for 7 days (treatment schedule 2*2/1*3 d).
In summary there is no clear beneficial effect in combining AP12009 with TMZ in A-172 cells.

In the case of “trabedersen: TGFβ2 specific phosphorothioate antisense oligodeoxynucleotide with the sequence 5′-CGGCATGTCTATTTTGTA-3′ (SEQ ID No: 1) (antisense dC*dG*dG*dC*dA*dT*dG*dT*dC*dT*dA*dT*dT*dT*dT*dG*dT*dA)”, the “cell proliferation (% of untreated control)” value [1] is reported as 76%, the “TGFβ2 expression (% of untreated control)” value [2] is reported as 54% and the “Lowest-Observed-Adverse-Effect-Level (LOAEL) devoid of severe toxicity” value [3] is reported as 4 mg/kg body weight (b.w.)/day. The “effect on TGFβ2 secretion” value [4] was “strongly reduced TGFβ2”.
